# In patent US20240389581A1, “SYNERGISTIC PESTICIDAL COMPOSITIONS AND METHODS FOR DELIVERY OF INSECTICIDAL ACTIVE INGREDIENTS” (TERRAMERA, INC., priority 2021, published 2024):
# What was measured:
# [1] = system: Trichoplusia ni (cabbage looper) larvae; experiment: In-vitro insecticidal efficacy (mortality and bioactivity, treated artificial diet, Abbott and Colby formulas) against Trichoplusia ni; format: in vivo; conditions: aliphatic acid (salt) 500 ppm, alone or combined; for Survival Rate (100-(mortality + stunted)): Table 70B, Coragen 0.505 ppm (0.09292 ppm chlorantraniliprole)
# Procedure: An artificial diet suitable for Trichoplusia ni (cabbage looper caterpillar) was prepared from a commercially available general purpose lepidoptera artificial diet premix (such as General Purpose Lepidoptera Diet available from Frontier Scientific Services, Newark, DE) and mixed in a heated liquid agar media (0.022 g agar per ml of water). The liquid artificial diet and agar media was then used to fill each well of a transparent 96-well treatment plate with 200 μL of the artificial diet and agar media, which was allowed to solidify at room temperature and stored at approximately 4 C.
# A 20 μL treatment sample of each treatment formulation was then placed on top of the solidified artificial diet media in a well of a 96 well plate and allowed to dry overnight.
# (§1) The following day, one neonate Trichoplusia ni (cabbage looper) larva (hatched from eggs obtained from the Benzon Research, Inc. of Carlisle, PA, USA) was added to each well of the plate, after which the wells were sealed with a perforated transparent film, allowing air and moisture exchange. The plates were kept in a suitable regulated indoor incubation environment and the larvae were allowed to feed on the treatment overlaid diet/agar media for 5 days. […] Each experiment contained 8 replicates (larvae cells) for each treatment.
# (§2) While for SF<1, antagonism is present and for SF=1, the efficacy of the compounds is merely additive.
# as §1, with “such as available” for “obtained”, “from” for “from the”
# as §2
# [2] = system: Trichoplusia ni (cabbage looper) larvae; experiment: In-planta insecticidal efficacy (sprayed green cabbage plants, larval survival, Abbott and Colby formulas) against Trichoplusia ni; format: in vivo; conditions: Exirel at […] ([…] cyantraniliprole), aliphatic acids at 750 ppm; for Observed Efficacy, W (%): Abbott formula vs 10% isopropanol control; for Survival Rate (%): in-planta, T. ni larvae on sprayed cabbage, 10% isopropanol
# Procedure: Water and 10% isopropanol were tested as control treatments.
# Green cabbage plants (Brassica oleracea var. capitate, Danish Ballhead cultivar) were grown from seed (available from West Coast Seeds, Delta, BC, Canada) in potting soil for 4-6 weeks in a pest-free indoor growing environment. At between 4-6 weeks of age, each cabbage plant was sprayed with 20 mL of treatment solution using a pressurized CO2 sprayer from approximately 18 inches above the plant, and allowed to dry.
# as §2
# Cyantraniliprole was provided as the active ingredient in Exirel® insecticide (available from FMC Corp., Philadephia, PA, USA), and is present as 10% w/w of the Exirel® insecticide product formulation.
# [3] = system: Trichoplusia ni (cabbage looper) larvae; experiment: as above; format: in vivo; conditions: aliphatic acid 750 ppm, alone or combined; for Observed Efficacy, W: Abbott formula
# [4] = system: Fusarium oxysporum; experiment: Synergistic Growth Inhibition Assay (MIC / FIC index, 96-well microtiter, resazurin) against Fusarium oxysporum; format: cell-based; conditions: Compound B tested alone; 24 hour incubation
# Procedure: In the Synergistic Growth Inhibition Assay used in accordance with some embodiments of the present disclosure, multiple dilutions of combinations of pesticidal active ingredient and at least one C6-C10 saturated or unsaturated aliphatic acid agents are tested in individual cells for inhibitory activity against a target pest or pathogenic organism. […] In a further such embodiment, the combinations of pesticidal active ingredient and C6-C10 (or alternatively C11 or C12) saturated or unsaturated aliphatic acid agents may be tested in increasing concentrations.
# Thus, each well of the microtiter plate is a unique combination of the two agents, at which inhibitory efficacy of the combination against the target pest or pathogen can be determined.
# In one embodiment according to the present disclosure, for each row of microtiter cells in the Synergistic Growth Inhibition Assay, the FIC index is calculated from the lowest concentration of the pesticidal active ingredient and one or more C6-C10 saturated or unsaturated aliphatic acid agents necessary to inhibit growth of a target pest or pathogen. The FIC of each component is derived by dividing the concentration of the agent present in that well of the microtiter plate by the minimal inhibitory concentration (MIC) needed of that agent alone to inhibit growth of the target pest or pathogen. […] The FIC index is calculated for each row as follows: […]
# [5] = Table 69B, Coragen 0.2525 ppm (0.04646 ppm chlorantraniliprole), in-vitro
# [6] = Table 72, Coragen […] (0.104 ppm chlorantraniliprole)
# [7] = Table 71, Coragen […] (0.105 ppm chlorantraniliprole)
smiles,measurement,setting,value
CCCCC(CC)C(=O)O (stereo not drawn) [2-ethylhexanoic acid],Survival Rate (100-(mortality + stunting)),[1]; [5],95.83%
CCCCC(O)C(=O)O (stereo not drawn) [2-hydroxyhexanoic acid],Survival Rate (100-(mortality + stunting)),[1]; [5],91.67%
CCCCCCC(O)C(=O)O (stereo not drawn) [2-hydroxyoctanoic acid],Survival Rate (100-(mortality + stunting)),[1]; [5],100.00%
CCCCCCCCC(C)C(=O)O (stereo not drawn) [2-methyldecanoic acid],Survival Rate (100-(mortality + stunting)),[1]; [5],87.50%
CCCCCCC(C)C(=O)O (stereo not drawn) [2-methyloctanoic acid],Survival Rate (100-(mortality + stunting)),[1]; [5],95.83%
"CC(O)CC(=O)O (stereo not drawn) [3-Hydroxybutyric acid, 3-hydroxybutyric acid]",Survival Rate (100-(mortality + stunting)),[1]; [5],95.83%
"CCCCC=CCC(=O)O [3-Octenoic acid, 3-octenoic acid]",Survival Rate (100-(mortality + stunting)),[1]; [5],83.33%
CCCC=CCC(=O)O [3-heptenoic acid],Survival Rate (100-(mortality + stunted)),[1]; in-vitro,95.83%
CCCCCCCC(O)CC(=O)O (stereo not drawn) [3-hydroxdecanoic acid],Survival Rate (100-mortality),"[1]; Table 69A, Coragen 0.2525 ppm (0.04646 ppm chlorantraniliprole), in-vitro",100.00%
same,"Observed Efficacy (mortality), W","[1]; Table 69A, Coragen 0.2525 ppm, Abbott formula",0.00%
same,Survival Rate (100-(mortality + stunting)),[1]; [5],87.50%
same,"Observed Efficacy (bioactivity), W","[1]; Table 69B, bioactivity = mortality + growth stunting, Coragen 0.2525 ppm, Abbott formula",0.00%
CCCC(C)CC(=O)O (stereo not drawn) [3-methylhexanoic acid],Survival Rate (100-(mortality + stunting)),[1]; [5],83.33%
CCCCCCC(C)CC(=O)O (stereo not drawn) [3-methylnonanoic acid],Survival Rate (100-(mortality + stunting)),[1]; [5],79.17%
CCCCCC=CCC(=O)O [3-nonenoic acid],Survival Rate (100-(mortality + stunted)),[1]; in-vitro,95.83%
CCC(C)CCC(=O)O (stereo not drawn) [4-methylhexanoic acid],Survival Rate (100-(mortality + stunting)),[1]; [5],100.00%
C=CCCCC(=O)O [5-hexenoic acid],Survival Rate (100-(mortality + stunting)),[1]; [5],100.00%
"C=CCCCCCCCC(=O)O [9-Decenoic acid, 9-decenoic acid]","Observed Efficacy, W (%)",[2],−0.4%
same,Survival Rate (%),[2],65.8%
same,Survival Rate (100-(mortality + stunting)),[1]; [5],91.67%
O=C(O)CCCCCCCCCO [10-hydroxydecanoic acid],Survival Rate,[3]; [6],73.50%
same,"Observed Efficacy, W","[3]; Table 72, Coragen […]",0.00%
same,Survival Rate,"[3]; Table 73, Coragen […] (0.104 ppm chlorantraniliprole)",40.50%
same,"Observed Efficacy, W","[3]; Table 73, Coragen […]",36.72%
same,Survival Rate (100-(mortality + stunting)),[1]; [5],75.00%
O=C(O)CCCCCCCCCCCO [12-hydroxydodecanoic acid],Survival Rate (100-(mortality + stunting)),[1]; [5],91.67%
"C/C=C/C=C/C(=O)[O-].[K+] [(2E,4E)-2,4 hexadienoic acid potassium salt]",Survival Rate (100-(mortality + stunting)),[1]; [5],95.83%
same,Survival Rate (100-(mortality + stunted)),[1]; in-vitro,70.83%
"C/C=C/C=C/C(=O)O [(2E,4E)-2,4 hexadienoic acid]",Survival Rate (100-(mortality + stunting)),[1]; [5],79.17%
"C/C=C/C=C/C(=O)O [(2E,4E)-2,4-hexadienoic acid]",MIC (B),[4],125 µg/mL
CCCCCCCCCC(=O)O [Decanoic acid],Survival Rate (100-(mortality + stunting)),[1]; [5],83.33%
CCCCCCCCCCCC(=O)O [Dodecanoic acid],Survival Rate (100-(mortality + stunting)),[1]; [5],79.17%
CCCCCCC(=O)O [Heptanoic acid],Survival Rate (100-(mortality + stunting)),[1]; [5],91.67%
CCCCCC(=O)O [Hexanoic acid],Survival Rate (100-(mortality + stunting)),[1]; [5],87.50%
same,Survival Rate (100-(mortality + stunted)),[1]; in-vitro,100%
same,MIC (B),[4],290 µg/mL
CCCCCCCCC(=O)O [Nonanoic acid],Survival Rate (100-(mortality + stunting)),[1]; [5],95.83%
same,Survival Rate (100-(mortality + stunted)),[1]; in-vitro,62.50%
CCCCCCCC(=O)O [Octanoic acid],Survival Rate (100-(mortality + stunted)),[1]; in-vitro,95.83%
CCCCCCCCCC(=O)[O-].[K+] [Potassium Caprate],"Observed Efficacy, W (%)",[2],5.5%
same,Survival Rate (%),[2],69.7%
"CCCCCCC/C=C/C(=O)O [Trans-2-decenoic acid, trans-2-decenoic acid]",Survival Rate (%),[2],66.1%
same,Survival Rate,[3]; [6],81.00%
same,"Observed Efficacy, W","[3]; Table 72, Coragen […]",0.00%
same,Survival Rate (100-(mortality + stunting)),[1]; [5],79.17%
"CCC/C=C/C(=O)O [Trans-2-hexenoic acid, trans-2-hexenoic acid]",Survival Rate,[3]; [7],56.50%
same,"Observed Efficacy, W","[3]; Table 71, Coragen […]",18.71%
same,Survival Rate (100-(mortality + stunting)),[1]; [5],91.67%
"CCCCC/C=C/C(=O)O [Trans-2-octenoic acid, trans-2-octenoic acid]",Survival Rate,[3]; [6],77.00%
same,"Observed Efficacy, W","[3]; Table 72, Coragen […]",0.00%
same,Survival Rate (100-(mortality + stunting)),[1]; [5],70.83%
same,Survival Rate (100-(mortality + stunted)),[1]; in-vitro,87.50%
"CC/C=C/CC(=O)O [Trans-3-hexenoic acid, trans-3-hexenoic acid]",Survival Rate,[3]; [7],64.50%
same,"Observed Efficacy, W","[3]; Table 71, Coragen […]",7.19%
same,Survival Rate (100-(mortality + stunting)),[1]; [5],91.67%
CC/C=C\CC(=O)O [cis-3-hexenoic acid],Survival Rate (100-(mortality + stunting)),[1]; [5],83.33%
"CCC/C=C/C(=O)[O-].[K+] [trans-2-Hexenoic acid, potassium salt]","Observed Efficacy, W (%)",[2],11.3%
same,Survival Rate (%),[2],73.6%
CCC/C=C/C(=O)[O-].[K+] [trans-2-hexenoic acid potassium salt],Survival Rate (100-(mortality + stunting)),[1]; [5],91.67%
same,Survival Rate (100-(mortality + stunted)),[1]; in-vitro,83.33%
CCCCCC/C=C/C(=O)O [trans-2-nonenoic acid],Survival Rate (100-(mortality + stunting)),[1]; [5],75.00%
same,Survival Rate (100-(mortality + stunted)),[1]; in-vitro,100%
CCCCCCCC/C=C/C(=O)O [trans-2-undecenoic acid],Survival Rate (100-(mortality + stunting)),[1]; [5],87.50%
"CC/C=C/CC(=O)[O-].[K+] [trans-3-Hexenoic acid, potassium salt]","Observed Efficacy, W (%)",[2],7.1%
same,Survival Rate (%),[2],70.8%
CCCC/C=C/CC(=O)O [trans-3-octenoic acid],Survival Rate (100-(mortality + stunting)),[1]; [5],83.33%
